Results published in US11375708B2, “Methods and apparatus for management of mosquito populations with habitat sharing heterospecific insects carrying insect growth regulators” (Rutgers, The State University of New Jersey, priority 2015, dated 2022).

System: Aedes albopictus
Assay: Room (30 m^3) release of 20 treated Chironomus against 10 sentinel cups, mosquito pupal mortality
Type: in vivo
Conditions: 20 treated Chironomus released in 30 m^3 room, 2 days (48 hour exposure), 10 cups each with 250 ml oak infusion
From the text: FIG. 2. Mosquito pupal mortality achieved by releasing oil treated 20 Chironomus adults in a 30 m^3 room for 2 days against 10 sentinel cups. The average pupal mortality of Aedes albopictus was 88±3.5%.
Chironomus females don't need blood feeding and the larvae are easy to culture. […] The larvae developed in cryptic sentinel cups indicated the treated female has visited the cup and laid eggs. In the same cup, pupal mortality of Aedes albpictus indicated the pyriproxyfen transfer (FIG. 5). We further challenged the technology in a meshed tunnel (50×3×2 m) setup in the field with 10 cryptic sentinel cups inside (FIG. 7) by releasing 50 treated C. decorus females for 5 days. […] The backyard experiment was conducted by treating 800 chironomid adults with oil formulation (20% a.i) first and followed with powder formulation (60% a.i) at a separate location to avoid contamination. In this experiment, the active ingredient (a.i.) was pyriproxyfen. In order to avoid any dew effect, release time was in the afternoon between 2 to 5 pm. […]
Adults (males and females) of C. decorus (0 to 2 days old) will be collected and stored in a cage constructed with metal window screen. […] The cage with contaminated Chironomus then will be removed from the bottom of the chamber and ready for release in cases where only oil treatment is desired. […]

CC(COc1ccc(Oc2ccccc2)cc1)Oc1ccccn1 (stereo not shown) [pyriproxyfen]
average pupal mortality of Aedes albopictus: 88.5±3.5%
